Reference: PubChem BioAssay (NCI)
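Grown in 96-well plates, cells were treated for 48 hours with each compound at five concentrations. Insufficient inhibition: endpoint recorded as highest concentration tested. TGI is the concentration that stops growth completely.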

What was measured:
Experiment in all cases: NCI-60 cell line screen, 48 h
HOP-92 NSCLC = system: HOP-92 NSCLC
KM12 colon = system: KM12 colon
ACHN renal = system: ACHN renal
HCC-2998 colon = system: HCC-2998 colon
A498 renal = system: A498 renal
HT29 colon = system: HT29 colon
EKVX NSCLC = system: EKVX NSCLC
SN12C renal = system: SN12C renal
CCRF-CEM leukemia = system: CCRF-CEM leukemia
LOX IMVI melanoma = system: LOX IMVI melanoma
KM20L2 colon = system: KM20L2 colon
SNB-19 CNS = system: SNB-19 CNS
HOP-62 NSCLC = system: HOP-62 NSCLC
NCI-H226 lung = system: NCI-H226 lung
SNB-75 CNS = system: SNB-75 CNS
M14 melanoma = system: M14 melanoma
SW-620 colon = system: SW-620 colon
NCI/ADR-RES ovarian = system: NCI/ADR-RES ovarian
BT-549 breast = system: BT-549 breast
MCF7 breast = system: MCF7 breast

Row | SMILES | TGI (HOP-92 NSCLC) [µM] | TGI (KM12 colon) [µM] | TGI (ACHN renal) [µM] | TGI (HCC-2998 colon) [µM] | TGI (A498 renal) [µM] | TGI (HT29 colon) [µM] | TGI (EKVX NSCLC) [µM] | TGI (SN12C renal) [µM] | TGI (CCRF-CEM leukemia) [µM] | TGI (LOX IMVI melanoma) [µM] | TGI (KM20L2 colon) [µM] | TGI (SNB-19 CNS) [µM] | TGI (HOP-62 NSCLC) [µM] | TGI (NCI-H226 lung) [µM] | TGI (SNB-75 CNS) [µM] | TGI (M14 melanoma) [µM] | TGI (SW-620 colon) [µM] | TGI (NCI/ADR-RES ovarian) [µM] | TGI (BT-549 breast) [µM] | TGI (MCF7 breast) [µM]
1 | CC1(C)O[C@@H](CCl)C[C@H](C#N)O1 | > 100 | > 100 | > 100 | > 100 | > 100 | > 100 | > 100 | > 100 | > 100 | > 100 | > 100 | > 100 | > 100 | > 100 | > 100 | > 100 | > 100 |  |  | 
2 | COc1cc(O)c2c(=O)c3c(C)cccc3n(C)c2c1 | > 10 | > 10 | > 10 | > 10 | > 10 | > 10 | > 10 | > 10 | > 10 | > 10 |  | > 10 | > 10 | > 10 | > 10 | > 10 | > 10 | > 10 | > 10 | > 10
3 | O=C1C=CC(=C(c2ccc(O)cc2)c2ccc(O)cc2)C=C1 | 9.27 | 26.1 | 28.7 | 27.6 | 32 | 38.6 | 28.6 | 21 | 12.2 | 22.9 | 30.7 | 29.3 | 35.2 | 37.5 | 10.2 | 26.4 | 25.5 |  |  | 
4 | Cc1cn(CCCCCCC2=NCCCN2)c(=O)[nH]c1=O | > 100 | > 100 | > 100 | > 100 | > 100 | > 100 | > 100 | > 100 | > 100 | > 100 |  | > 100 | > 100 | > 100 | > 100 | > 100 | > 100 | > 100 | > 100 | > 100
5 | Fc1ccc(N=C/C=C/Nc2ccc(F)cc2)cc1 | 33.1 | 19.9 | 15 | 19.5 | 28.8 | 24.2 | 25.9 | 28.3 | > 51.3 | 18.5 |  | 26.9 | 33 | 36.2 | 28.4 | 11.9 | 20.7 | 26.4 | 27.4 | 28.3
6 | COC(OC)C1OCC(n2cc(F)c(=O)[nH]c2=O)C1O (centres undefined) | > 100 | > 100 | > 100 | > 100 | > 100 | > 100 | > 100 | > 100 | > 100 | > 100 |  | > 100 | > 100 | > 100 | > 100 | > 100 | > 100 | > 100 | > 100 | > 100
7 | COc1ccc(NC(=O)CC(=O)n2nc(C)c(N=Nc3cccc(C)c3)c2C)cc1 | > 100 | > 100 | > 100 | > 100 | > 100 | > 100 | > 100 | > 100 | > 100 | > 100 |  | > 100 | > 100 | > 100 | > 100 | > 100 | > 100 | > 100 | > 100 | > 100
8 | O=c1sc2c(s1)-c1sc(=O)sc1SS2 | > 100 | > 100 | > 100 | > 100 | > 62.2 | > 56.9 | > 100 | > 100 | > 96 | > 100 |  | > 100 | > 100 | > 73.1 | > 100 | > 100 | > 100 | > 76.3 | > 100 | > 100
9 | C(/Cc1ccc2c(c1)OCO2)=N\NC1=NCCN1 | > 100 | > 100 | > 100 | > 100 | 70.5 | > 100 | > 100 | > 100 | > 100 | > 100 |  | > 100 | > 100 | > 100 | > 100 | > 100 | > 100 | > 100 | > 100 | > 100
10 | CCCCCCNC(=O)CCC(NC(=O)c1ccc(N(C)Cc2cnc3nc(N)nc(N)c3n2)cc1)C(=O)NCCCCCC (centres undefined) | > 100 | > 100 | > 100 | > 100 | > 100 | > 100 | > 100 | > 100 | > 100 | > 100 |  | > 100 | > 100 | > 100 | > 100 | > 100 | > 100 | > 100 | > 100 | 34.1
11 | CSc1c(C#N)c(N)nc2c(N=Nc3ccc(Br)cc3)c(N)nn12 | 18.9 | 23.6 | 18.5 | 26 | 52.9 | 29 | 23.9 | 13.4 | 10.2 | 3.58 |  | 69.6 | 32.3 | 39.5 | 28.8 | 24.6 | 12.7 | 47.5 | 37.3 | 8.63
12 | CCCC(O)c1cn(C(NC(=O)c2ccccc2)P(=O)(OCC)OCC)nn1 (centres undefined) | > 100 | > 100 | > 100 | > 100 | > 100 | > 100 | > 100 | > 100 | > 100 | > 100 |  | > 100 | > 100 | > 100 | > 100 | > 100 | > 100 | > 100 | > 100 | > 100
